{"source": "patent US20210046139A1", "about": "“VEGETATION WATERS AND USES THEREOF” (FATTORIA LA VIALLA DI GIANNI, ANTONIO E BANDINO LO FRANCO - …, priority 2018, published 2021)", "key": {"STZ diabetic rats [1]": {"tested_on": "STZ diabetic rats", "experiment": "Thiobarbituric acid reactive substances (TBARS) in plasma and kidney", "type": "in vivo, Sprague-Dawley rats", "conditions": "50 mg/kg/day, 5 weeks, mean ± S.E.", "excerpt": "A well-established model of streptozotocin (STZ)-induced diabetes in rats was used. Streptozotocin is a glucosamine derivative of nitrosurea which selectively destroys the β cells of the pancreatic islets and causes the development of diabetes with hyperglycemia and glycosuria. The model shares a series of characteristics with human diabetic complications at both a functional level and a biochemical level, such as, for example, a reduced nervous conduction, loss of small-diameter sensory nerve fibers in the skin, reduction in Na+ and K+-ATPase activity and early alterations of the thermal and mechanical nociceptive thresholds. In this study, diabetes was induced in 24 rats with a single intraperitoneal injection of 60 mg/kg of STZ dissolved in a sodium citrate buffer (pH 4.5). 24 rats injected only with the vehicle were used as non-diabetic controls. Hyperglycemia was confirmed by measuring glycosuria 72 hours after the injection of STZ using Keto-Diabur strips (KD-5000; Roche Diagnostics Spa, Italy). Only the animals with glycosuria >5% were classified as diabetic and included in the study. […] The levels of TBARS were determined as an indicator of the production of reactive oxygen species. […] The upper phase was measured using fluorimetry, (Infinite M200; Tecan, Milan, Italy) at an excitation wavelength of 532 nm and emission wavelength of 553 nm. […]"}, "STZ diabetic rats [2]": {"tested_on": "STZ diabetic rats", "experiment": "Plasma total cholesterol, HDL and triglycerides", "type": "in vivo, Sprague-Dawley rats", "conditions": "50 mg/kg/day, 5 weeks, mean ± S.E.", "excerpt": "A well-established model of streptozotocin (STZ)-induced diabetes in rats was used. Streptozotocin is a glucosamine derivative of nitrosurea which selectively destroys the β cells of the pancreatic islets and causes the development of diabetes with hyperglycemia and glycosuria. The model shares a series of characteristics with human diabetic complications at both a functional level and a biochemical level, such as, for example, a reduced nervous conduction, loss of small-diameter sensory nerve fibers in the skin, reduction in Na+ and K+-ATPase activity and early alterations of the thermal and mechanical nociceptive thresholds. In this study, diabetes was induced in 24 rats with a single intraperitoneal injection of 60 mg/kg of STZ dissolved in a sodium citrate buffer (pH 4.5). 24 rats injected only with the vehicle were used as non-diabetic controls. Hyperglycemia was confirmed by measuring glycosuria 72 hours after the injection of STZ using Keto-Diabur strips (KD-5000; Roche Diagnostics Spa, Italy). Only the animals with glycosuria >5% were classified as diabetic and included in the study. […] The animals were then randomized to receive the concentrate of the invention at an HT equivalent dose of 50 mg/kg/day or 50 mg/kg/day of pure HT in drinking water, according to the following treatment groups: The daily dose of compounds was administered starting from the 7th week after the injection of STZ or the vehicle. The treatment lasted 5 weeks and urine samples were taken. The animals were then sacrificed and the plasma, kidneys and sciatic nerves were removed. The sacrifice took place within 2 hours after the last administration of the concentrate, HT or the vehicle. At the end of the 5-week treatment period, urine and plasma were collected to measure the level of triglycerides (TG), total cholesterol (TC), high-density lipoprotein (HDL) and other parameters using commercially available diagnostic kits."}, "[3]": {"conditions": "non-diabetic control rats (CTRL)"}}}
{"compound": "OCCc1ccc(O)c(O)c1", "note": "[HT, hydroxytyrosol]", "values": [{"measurement": "PLASMA TBARS", "setting": "STZ diabetic rats [1]; STZ diabetic rats", "value": "12.1 ± 1.2", "unit": "nmol/mL"}, {"measurement": "PLASMA TBARS", "setting": "STZ diabetic rats [1]; [3]", "value": "4.3 ± 0.5", "unit": "nmol/mL"}, {"measurement": "PLASMA HDL", "setting": "STZ diabetic rats [2]; STZ diabetic rats", "value": "48.7 ± 1.6", "unit": "mg/dL"}, {"measurement": "PLASMA TC", "setting": "STZ diabetic rats [2]; STZ diabetic rats", "value": "118.1 ± 3.0", "unit": "mg/dL"}, {"measurement": "PLASMA TG", "setting": "STZ diabetic rats [2]; STZ diabetic rats", "value": "457.1 ± 60.7", "unit": "mg/dL"}, {"measurement": "PLASMA HDL", "setting": "STZ diabetic rats [2]; [3]", "value": "27.0 ± 0.4", "unit": "mg/dL"}, {"measurement": "PLASMA TC", "setting": "STZ diabetic rats [2]; [3]", "value": "84.4 ± 2.1", "unit": "mg/dL"}, {"measurement": "PLASMA TG", "setting": "STZ diabetic rats [2]; [3]", "value": "111.5 ± 8.6", "unit": "mg/dL"}]}
